Source: patent US4492757A, “Process for preparing L-threonine” (Denki Kagaku Kogyo Kabushiki Kaisha, priority 1981, dated 1985)

Assays:
D-threonine-aldolase = assay: Agents inhibiting, activating or stabilizing the activity of the novel enzyme; assay type: biochemical
L-allothreonine-aldolase = assay: Inhibitants, stabilizers and coenzyme of L-allothreonine-aldolase; assay type: biochemical

| effect of the agent on the activity of the novel enzyme (D-threonine-aldolase) | effect of the agent on L-allothreonine-aldolase (L-allothreonine-aldolase) | coenzyme (L-allothreonine-aldolase) | Compound |
| --- | --- | --- | --- |
| activated and stabilized | Stabilizers |  | O[C@H](CS)[C@H](O)CS (racemic) [dithiothreitol] |
| inhibited | Inhibitants |  | [Ag+] [Ag^+] |
| activated and stabilized |  |  | [Co+2] [Co^2+] |
| inhibited | Inhibitants |  | [Cu+2] [Cu^2+] |
| activated and stabilized |  |  | [Fe+2] [Fe^2+] |
| activated and stabilized |  |  | [Mg+2] [Mg^2+] |
| activated and stabilized |  |  | [Mn+2] [Mn^2+] |
| inhibited |  |  | [Pd+2] [Pd^2+] |
| inhibited |  |  | [Zn+2] [Zn^2+] |
| activated and stabilized | Stabilizers |  | OCCS [mercaptoethanol] |
|  |  | Coenzyme | Cc1ncc(COP(=O)(O)O)c(C=O)c1O [pyridoxal-5'-phosphate] |

| Compound | effect of the agent on the activity of the novel enzyme (D-threonine-aldolase) | effect of the agent on L-allothreonine-aldolase (L-allothreonine-aldolase) | coenzyme (L-allothreonine-aldolase) |
| --- | --- | --- | --- |
| [Hg+2] [Hg^2+] | inhibited | Inhibitants |  |
| NO [hydroxylamine] | inhibited |  |  |
| O=C(O)c1cc[c]([Hg][Cl])cc1 [p-chloromercuribenzoate] | inhibited |  |  |
| O=S([O-])O.[Na+] [sodium hydrogen sulfite] | activated and stabilized |  |  |
| O=S([O-])[O-].[Na+].[Na+] [sodium sulfite] | activated and stabilized | Stabilizers |  |
